PubChem BioAssay AID2060626 (Molecular Pharmacology Branch, DTP, NCI, 2025)

System: 168753-222-R-J1-PDC complex spheroid viability
Assay: Anticancer human tumor 168753-222-R-J1-PDC patient-derived bladder carcinoma cell line growth inhibition [CLK]
Details: second compound 0.1 µM; first compound 1 µM; active compounds read low
Summary of the method: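 Multi-cell-type spheroids combined patient-derived tumor cells with HUVEC endothelial cells and human mesenchymal stem cells. Paired agents were dosed in half-log steps down from about clinical Cmax, or from 10 microM where Cmax was unknown.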
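Also: luminescence signal used as surrogate for viable cell amount; viability measured after seven days of drug exposure; 100% = DMSO vehicle control wells.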

Row | SMILES | viability, T/C [%]
1 | CCCS(=O)(=O)Nc1ccc(F)c(C(=O)c2c[nH]c3ncc(-c4ccc(Cl)cc4)cc23)c1F + CNC(=O)c1ccc(Nc2nc(OC3CCCC3)c3c(-c4ccc5nc(C)oc5c4)c[nH]c3n2)c(OC)c1 | 106
2 | COC1C=CCC(C)C(C)S(=O)(=O)NC(=O)c2ccc3c(c2)N(CC2CCC21)CC1(CCCc2cc(Cl)ccc21)CO3 (configuration not stated) + CNC(=O)c1ccc(Nc2nc(OC3CCCC3)c3c(-c4ccc5nc(C)oc5c4)c[nH]c3n2)c(OC)c1 | 78.5

Same assay, conditions: second compound 0.1 µM; first compound 3.16 µM; active compounds read low

Row | SMILES | viability, T/C [%]
3 | COc1ccc([C@@H](O)c2cc(-c3ncnc4cc(N5CCOCC5)ccc34)c(F)cc2Cl)nn1 + CN1CCN(c2cc(C(=O)Nc3cc4cc(-c5cnn(C)c5)ccc4cn3)ccn2)CC1 | 10.1
4 | COc1cccc2c1C(=O)c1c(O)c3c(c(O)c1C2=O)CC(O)(C(=O)CO)CC3OC1CC(N)C(O)C(C)O1 (configuration not stated) + CN1CCN(c2cc(C(=O)Nc3cc4cc(-c5cnn(C)c5)ccc4cn3)ccn2)CC1 | 5.89
5 | C=CC(=O)N1CCN(c2nc(=O)n(-c3c(C)ccnc3C(C)C)c3nc(-c4c(O)cccc4F)c(F)cc23)C(C)C1 (configuration not stated) + CNC(=O)c1ccc(Nc2nc(OC3CCCC3)c3c(-c4ccc5nc(C)oc5c4)c[nH]c3n2)c(OC)c1 | 102
6 | CCCS(=O)(=O)Nc1ccc(F)c(C(=O)c2c[nH]c3ncc(-c4ccc(Cl)cc4)cc23)c1F + CNC(=O)c1ccc(Nc2nc(OC3CCCC3)c3c(-c4ccc5nc(C)oc5c4)c[nH]c3n2)c(OC)c1 | 103
7 | COC1C=CCC(C)C(C)S(=O)(=O)NC(=O)c2ccc3c(c2)N(CC2CCC21)CC1(CCCc2cc(Cl)ccc21)CO3 (configuration not stated) + CNC(=O)c1ccc(Nc2nc(OC3CCCC3)c3c(-c4ccc5nc(C)oc5c4)c[nH]c3n2)c(OC)c1 | 35.9

Same assay, conditions: second compound 0.1 µM; first compound 10 µM; active compounds read low

Row | SMILES | viability, T/C [%]
8 | COc1ccc([C@@H](O)c2cc(-c3ncnc4cc(N5CCOCC5)ccc34)c(F)cc2Cl)nn1 + CN1CCN(c2cc(C(=O)Nc3cc4cc(-c5cnn(C)c5)ccc4cn3)ccn2)CC1 | 7.24
9 | COc1cccc2c1C(=O)c1c(O)c3c(c(O)c1C2=O)CC(O)(C(=O)CO)CC3OC1CC(N)C(O)C(C)O1 (configuration not stated) + CN1CCN(c2cc(C(=O)Nc3cc4cc(-c5cnn(C)c5)ccc4cn3)ccn2)CC1 | 0.16
10 | C=CC(=O)N1CCN(c2nc(=O)n(-c3c(C)ccnc3C(C)C)c3nc(-c4c(O)cccc4F)c(F)cc23)C(C)C1 (configuration not stated) + CNC(=O)c1ccc(Nc2nc(OC3CCCC3)c3c(-c4ccc5nc(C)oc5c4)c[nH]c3n2)c(OC)c1 | 95.2
11 | CCCS(=O)(=O)Nc1ccc(F)c(C(=O)c2c[nH]c3ncc(-c4ccc(Cl)cc4)cc23)c1F + CNC(=O)c1ccc(Nc2nc(OC3CCCC3)c3c(-c4ccc5nc(C)oc5c4)c[nH]c3n2)c(OC)c1 | 66.2
12 | COC1C=CCC(C)C(C)S(=O)(=O)NC(=O)c2ccc3c(c2)N(CC2CCC21)CC1(CCCc2cc(Cl)ccc21)CO3 (configuration not stated) + CNC(=O)c1ccc(Nc2nc(OC3CCCC3)c3c(-c4ccc5nc(C)oc5c4)c[nH]c3n2)c(OC)c1 | 18.9

Same assay, conditions: second compound 0.316 µM; first compound 0.0316 µM; active compounds read low

Row | SMILES | viability, T/C [%]
13 | COc1ccc([C@@H](O)c2cc(-c3ncnc4cc(N5CCOCC5)ccc34)c(F)cc2Cl)nn1 + CN1CCN(c2cc(C(=O)Nc3cc4cc(-c5cnn(C)c5)ccc4cn3)ccn2)CC1 | 9.76
14 | COc1cccc2c1C(=O)c1c(O)c3c(c(O)c1C2=O)CC(O)(C(=O)CO)CC3OC1CC(N)C(O)C(C)O1 (configuration not stated) + CN1CCN(c2cc(C(=O)Nc3cc4cc(-c5cnn(C)c5)ccc4cn3)ccn2)CC1 | 8.86
15 | C=CC(=O)N1CCN(c2nc(=O)n(-c3c(C)ccnc3C(C)C)c3nc(-c4c(O)cccc4F)c(F)cc23)C(C)C1 (configuration not stated) + CNC(=O)c1ccc(Nc2nc(OC3CCCC3)c3c(-c4ccc5nc(C)oc5c4)c[nH]c3n2)c(OC)c1 | 85.7
16 | CCCS(=O)(=O)Nc1ccc(F)c(C(=O)c2c[nH]c3ncc(-c4ccc(Cl)cc4)cc23)c1F + CNC(=O)c1ccc(Nc2nc(OC3CCCC3)c3c(-c4ccc5nc(C)oc5c4)c[nH]c3n2)c(OC)c1 | 92.3
17 | COC1C=CCC(C)C(C)S(=O)(=O)NC(=O)c2ccc3c(c2)N(CC2CCC21)CC1(CCCc2cc(Cl)ccc21)CO3 (configuration not stated) + CNC(=O)c1ccc(Nc2nc(OC3CCCC3)c3c(-c4ccc5nc(C)oc5c4)c[nH]c3n2)c(OC)c1 | 75.9

Same assay, conditions: second compound 0.316 µM; first compound 0.1 µM; active compounds read low

Row | SMILES | viability, T/C [%]
18 | COc1ccc([C@@H](O)c2cc(-c3ncnc4cc(N5CCOCC5)ccc34)c(F)cc2Cl)nn1 + CN1CCN(c2cc(C(=O)Nc3cc4cc(-c5cnn(C)c5)ccc4cn3)ccn2)CC1 | 8.36
19 | COc1cccc2c1C(=O)c1c(O)c3c(c(O)c1C2=O)CC(O)(C(=O)CO)CC3OC1CC(N)C(O)C(C)O1 (configuration not stated) + CN1CCN(c2cc(C(=O)Nc3cc4cc(-c5cnn(C)c5)ccc4cn3)ccn2)CC1 | 8.74
20 | C=CC(=O)N1CCN(c2nc(=O)n(-c3c(C)ccnc3C(C)C)c3nc(-c4c(O)cccc4F)c(F)cc23)C(C)C1 (configuration not stated) + CNC(=O)c1ccc(Nc2nc(OC3CCCC3)c3c(-c4ccc5nc(C)oc5c4)c[nH]c3n2)c(OC)c1 | 83.5
21 | CCCS(=O)(=O)Nc1ccc(F)c(C(=O)c2c[nH]c3ncc(-c4ccc(Cl)cc4)cc23)c1F + CNC(=O)c1ccc(Nc2nc(OC3CCCC3)c3c(-c4ccc5nc(C)oc5c4)c[nH]c3n2)c(OC)c1 | 98.7
22 | COC1C=CCC(C)C(C)S(=O)(=O)NC(=O)c2ccc3c(c2)N(CC2CCC21)CC1(CCCc2cc(Cl)ccc21)CO3 (configuration not stated) + CNC(=O)c1ccc(Nc2nc(OC3CCCC3)c3c(-c4ccc5nc(C)oc5c4)c[nH]c3n2)c(OC)c1 | 74

Same assay, conditions: second compound 0.316 µM; first compound 0.316 µM; active compounds read low

Row | SMILES | viability, T/C [%]
23 | COc1ccc([C@@H](O)c2cc(-c3ncnc4cc(N5CCOCC5)ccc34)c(F)cc2Cl)nn1 + CN1CCN(c2cc(C(=O)Nc3cc4cc(-c5cnn(C)c5)ccc4cn3)ccn2)CC1 | 8.98
24 | COc1cccc2c1C(=O)c1c(O)c3c(c(O)c1C2=O)CC(O)(C(=O)CO)CC3OC1CC(N)C(O)C(C)O1 (configuration not stated) + CN1CCN(c2cc(C(=O)Nc3cc4cc(-c5cnn(C)c5)ccc4cn3)ccn2)CC1 | 7.81
25 | C=CC(=O)N1CCN(c2nc(=O)n(-c3c(C)ccnc3C(C)C)c3nc(-c4c(O)cccc4F)c(F)cc23)C(C)C1 (configuration not stated) + CNC(=O)c1ccc(Nc2nc(OC3CCCC3)c3c(-c4ccc5nc(C)oc5c4)c[nH]c3n2)c(OC)c1 | 74.8
26 | CCCS(=O)(=O)Nc1ccc(F)c(C(=O)c2c[nH]c3ncc(-c4ccc(Cl)cc4)cc23)c1F + CNC(=O)c1ccc(Nc2nc(OC3CCCC3)c3c(-c4ccc5nc(C)oc5c4)c[nH]c3n2)c(OC)c1 | 93.1
27 | COC1C=CCC(C)C(C)S(=O)(=O)NC(=O)c2ccc3c(c2)N(CC2CCC21)CC1(CCCc2cc(Cl)ccc21)CO3 (configuration not stated) + CNC(=O)c1ccc(Nc2nc(OC3CCCC3)c3c(-c4ccc5nc(C)oc5c4)c[nH]c3n2)c(OC)c1 | 35
